Source: patent US20040035690A1, “Method and apparatus for chemical and biochemical reactions using photo-generated reagents” (The Regents Of The University Of Michigan, priority 1998, published 2004)
“Also recorded” adds a separate entry of the source. No end group written: not given here. dns = not defined here

Columns and labels:
[1] = test system: mouse MAb DO-1; assay: Oligopeptide immunoassay with MAb DO-1 and FITC-tagged secondary antibody; format: binding; details: hexapeptide microarray made with acid PGR, FITC-tagged rabbit anti-mouse IgG
Protocol: Solid substrates comprising oligopeptids were washed with PBS (phosphate-buffered saline, 25 mM NaH2PO4, 125 mM NaCl, pH 7.4), PBST (PBS, 0.2% (V/V) Tween 20), and PBS, respectively. Next, the solid substrates were then incubated with mouse MAb DO-1, which recognizes amino acid residue 20-25 of human tumor suppressor protein p53, in PBS at room temperature for 2 h. After washing with PBST and PBS, samples were treated with FITC-tagged secondary rabbit anti-mouse immunoglobulin (IgG) overnight at 4° C. Following washing with PBST and PBS, fluorescence of the solid substrate was measured.

[2] = Pb^2+ ion binding assay of oligopeptides on microarray (fluorescence); details: peptide microarray made with acid PGR; lead chloride in buffer
Protocol: (§1) 5-dimethylaminonaphthalene-1-sulfonyl chloride (dansyl chloride, dns) generated fluorescence was also performed by contacting the solid substrate with a mixture of dns (1.25 mmol) and triethylamine (0.125 mmol) in DMF for 4 h at room temperature. The fluorescence detection was done in the same manner as previously described for FAM with the exception that the excitation wavelength was 365 nm.
For the Pb^2+ ion assay, solid substrates comprising oligopeptides were washed with a buffer solution containing 100 mM HEPES (pH 7.1) and 10% methanol. Samples were then treated with 0.1 mM lead chloride in buffer overnight at room temperature. After washing with buffer solution and methanol the solid substrates were left to dry in an inert atmosphere in the dark.

[3] = As^3+ ion binding assay of oligopeptides on microarray (fluorescence); details: peptide microarray made with acid PGR; NaAsO2
Protocol: as §1
For the As^3+ ion assay, the assay was performed by the same procedure as the Pb^2+ assay but the buffer was 10 mM sodium acetate (pH 4.0) containing 100 mM NaCl and 0.1 mM sodium arsenite (NaAsO2) was the metal ion solution.

In the case of “DSLGKL: hexapeptide analogue of SDLHKL on the microarray (DSLHKL; printed: Asp-Ser-Leu-His-Lys-Leu)”, the “fluorescence labeling / fluorescence intensity on binding of MAb DO-1” value [1] is reported as “fluorescence intensity is not detected”.
With “H2N-Glu-Glu-Glu-Glu (EEEE; printed: Glu-Glu-Glu-Glu) [tetrapeptide analogue on the microarray]” the “fluorescence labeling / fluorescence intensity on Pb^2+ binding” value [2] was “increase is fluorescence is not observed”.
For “SDLHKL [hexapeptide, amino acid residue 20-25 of human p53 protein]”, the “fluorescence labeling / fluorescence intensity on binding of MAb DO-1” value [1] was “selective labeling” and the “fluorescence labeling / fluorescence intensity on binding of MAb DO-1” value ([1]; listed as SDLHKL) was “fluorescence intensity is detected”.
For “SGLHKL [hexapeptide analogue of SDLHKL on the microarray]”, the “fluorescence labeling / fluorescence intensity on binding of MAb DO-1” value [1] was “fluorescence intensity is not detected”.
In the case of dns-Cys-Cys-Cys-Cys, the “fluorescence labeling / fluorescence intensity on Pb^2+ binding” value [2] is reported as “increase is fluorescence is not observed”.
For dns-Glu-Cys-Glu-Glu, the “fluorescence labeling / fluorescence intensity on Pb^2+ binding” value [2] was “significant increase in fluorescence intensity; also recorded: selective labeling”.
In the case of dns-Glu-Glu-Glu-Glu, the “fluorescence labeling / fluorescence intensity on As^3+ binding” value [3] is reported as “fluoresence intensity is greatest; also recorded: selective labeling”.
For “dns-Gly-Gly-Gly-Gly (dns-GGGG; reading uncertain; also: printed as dns-Gly-Gly-Gly-Gly) [das-Gly-Gly-Gly-Gly, dansyl-labeled tetrapeptide]”, the “fluorescence labeling / fluorescence intensity on Pb^2+ binding” value [2] was “increase is fluorescence is not observed”.
